According to patent US20230210853A1 (Halia Therapeutics, Inc., priority 2020, published 2023):

The compounds below were run against T1, full-length recombinant human NEK7 (Homo sapiens, UniProt Q8TDX7) (assay: NEK7 enzymatic assay ([33P]-ATP, casein substrate)). Settings: Table 2a; recombinant human NEK7, casein substrate.
T1 construct: full-length recombinant human NEK7; GST (N); purchased SignalChem N09-10G; host or cells: Sf9 insect cells (baculovirus)
T1 sequence (Q8TDX7 whole entry): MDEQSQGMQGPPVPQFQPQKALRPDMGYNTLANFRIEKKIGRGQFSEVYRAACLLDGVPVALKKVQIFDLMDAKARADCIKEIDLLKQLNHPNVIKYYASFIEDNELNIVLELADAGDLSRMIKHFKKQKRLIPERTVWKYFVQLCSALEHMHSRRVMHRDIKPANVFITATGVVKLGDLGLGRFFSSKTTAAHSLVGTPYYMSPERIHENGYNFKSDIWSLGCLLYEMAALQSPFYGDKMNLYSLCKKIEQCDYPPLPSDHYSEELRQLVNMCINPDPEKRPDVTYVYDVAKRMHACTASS
Assay type: biochemical
Method: In some embodiments, the IC50 of the compounds of Structure (I), (Ia), (Ib), (Ic), (Id), (Ie), or (If) to inhibit NEK7 was determined by the concentration of the compound required to inhibit 50% of the activity of the NEK kinase.
(§1) Casein substrate (from bovine milk, hydrolyzed and partially dephosphorylated mixture of α, β and κ caseins, obtained from Sigma Aldrich, catalogue #C4765, diluted in distilled water to a final concentration of 1 mg/mL) and full-length recombinant human NEK7 (expressed by baculovirus in Sf9 insect cells using a N-terminal GST tag, obtained from SignalChem, catalogue #N09-10G, 0.1 μg/μL) were mixed in assay buffer (20 mM Hepes pH 7.5, 10 mM MgCl2, 1 mM EGTA, 0.02% Brij35, 0.02 mg/ml BSA, 0.1 mM Na3 VO4, 2 mM DTT, 1% DMSO). Compounds of interest (serial 3-fold dilution in DMSO from 10 μM to 0.5 nM) or vehicle (1% DMSO) were dispensed into the kinase reaction mixture by Acoustic technology (Echo550, nanoliter range). After incubation at room temperature for 20 minutes, the kinase reaction was initiated by addition of [^33P]-ATP (specific activity 10 μCi/μl) and the mixture was incubated at room temperature for 2 hours. The reaction was then stopped by spotting the reaction mixture on strips of phosphocellulose P81 paper. Following washing, the radioactivity of the P81 paper was measured and kinase activity data were expressed as the percent remaining kinase activity in test samples compared to vehicle reactions. IC50 values and curve fits were obtained using Prism (GraphPad Software).
as §1, with “μg/L)” for “μg/μL)”, “Na3VO4,” for “Na3 VO4,”, “(Echo550;” for “(Echo550,”
Work on CC(C)n1nc(-c2ccc(NC(=O)Nc3cc(C(C)(C)C)no3)cc2)c2c(N)ncnc21 [Ia-1, 1-(4-(4-amino-1-isopropyl-1H-pyrazolo[3,4-d]pyrimidin-3-yl)phenyl)-3-(3-(tert-butyl)isoxazol-5-yl)urea] yielded an IC50 of 0.301 to 0.5 µM.
With CC(C)(C)c1cc(NC(=O)Nc2ccc(-c3nn(C4COC4)c4ncnc(N)c34)cc2)on1 [Ia-2, 1-(4-(4-amino-1-(oxetan-3-yl)-1H-pyrazolo[3,4-d]pyrimidin-3-yl)phenyl)-3-(3-(tert-butyl)isoxazol-5-yl)urea] the IC50 was 0.151 to 0.3 µM.
In the case of CC(C)(C)c1cc(NC(=O)Nc2ccc(-c3nn(C4COC4)c4ncnc(N)c34)cc2)no1 [Ia-3, 1-(4-(4-amino-1-(oxetan-3-yl)-1H-pyrazolo[3,4-d]pyrimidin-3-yl)phenyl)-3-(5-(tert-butyl)isoxazol-3-yl)urea], the IC50 is reported as 0.151 to 0.3 µM.
In the case of CC(C)(C)c1cc(NC(=O)Nc2ccc(-c3nn(C4CCOCC4)c4ncnc(N)c34)cc2)on1 [Ia-4, 1-(4-(4-amino-1-(tetrahydro-2H-pyran-4-yl)-1H-pyrazolo[3,4-d]pyrimidin-3-yl)phenyl)-3-(3-(tert-butyl)isoxazol-5-yl)urea], the IC50 is reported as 0.301 to 0.5 µM.
Work on CC(C)(C)c1cc(NC(=O)Nc2ccc(-c3nn(C4CCOC4)c4ncnc(N)c34)cc2)on1 (stereo not drawn) [Ia-5, 1-(4-(4-amino-1-(tetrahydrofuran-3-yl)-1H-pyrazolo[3,4-d]pyrimidin-3-yl)phenyl)-3-(3-(tert-butyl)isoxazol-5-yl)urea] yielded an IC50 of 0.151 to 0.3 µM.
CC(C)n1nc(-c2ccc(NC(=O)Nc3cc(C(C)(C)C)no3)c(Cl)c2)c2c(N)ncnc21 [Ia-6] was tested, and the IC50 was 0.501 to 1.5 µM.
In the case of CC(C)(C)c1cc(NC(=O)Nc2ccc(-c3nn(C4CCC4)c4ncnc(N)c34)cc2)on1 [Ia-7, 1-(4-(4-amino-1-cyclobutyl-1H-pyrazolo[3,4-d]pyrimidin-3-yl)phenyl)-3-(3-(tert-butyl)isoxazol-5-yl)urea], the IC50 is reported as 0.151 to 0.3 µM.
Work on CC(C)(C)c1cc(NC(=O)Nc2ccc(-c3nn(C4CCC4)c4ncnc(N)c34)cc2F)on1 [Ia-8, 1-(4-(4-amino-1-cyclobutyl-1H-pyrazolo[3,4-d]pyrimidin-3-yl)-2-fluorophenyl)-3-(3-(tert-butyl)isoxazol-5-yl)urea] yielded an IC50 of under 0.15 µM.
With CC(C)(O)Cn1nc(-c2ccc(NC(=O)Nc3cc(C(C)(C)C)no3)cc2)c2c(N)ncnc21 [Ia-9, 1-(4-(4-amino-1-(2-hydroxy-2-methylpropyl)-1H-pyrazolo[3,4-d]pyrimidin-3-yl)phenyl)-3-(3-(tert-butyl)isoxazol-5-yl)urea] the IC50 was 0.301 to 0.5 µM.
With CC(C)(O)Cn1nc(-c2ccc(NC(=O)Nc3cc(C(C)(C)C)no3)c(F)c2)c2c(N)ncnc21 [Ia-10] the IC50 was under 0.15 µM.
For CC(C)n1nc(-c2ccc(NC(=O)Nc3cc(C(C)(C)C)no3)c(F)c2)c2c(N)ncnc21 [Ia-11, 1-(4-(4-amino-1-isopropyl-1H-pyrazolo[3,4-d]pyrimidin-3-yl)-2-fluorophenyl)-3-(3-(tert-butyl)isoxazol-5-yl)urea], the IC50 was under 0.15 µM.
CC(C)(C)c1cc(NC(=O)Nc2ccc(-c3nn(C4CCC(O)CC4)c4ncnc(N)c34)cc2F)on1 (stereo not drawn) [Ia-15] gave an IC50 of under 0.15 µM.
CC(C)(C)c1cc(NC(=O)Nc2ccc(-c3nn(C4CC(F)(F)C4)c4ncnc(N)c34)cc2F)on1 [Ia-16, 1-(4-(4-amino-1-(3,3-difluorocyclobutyl)-1H-pyrazolo[3,4-d]pyrimidin-3-yl)-2-fluorophenyl)-3-(3-(tert-butyl)isoxazol-5-yl)urea] showed an IC50 of 0.501 to 1.5 µM.
With CC(C)(C)c1cc(NC(=O)Nc2ccc(-c3nn(-c4ccncc4)c4ncnc(N)c34)cc2F)on1 [Ia-17, 1-(4-(4-amino-1-(pyridin-4-yl)-1H-pyrazolo[3,4-d]pyrimidin-3-yl)-2-fluorophenyl)-3-(3-(tert-butyl)isoxazol-5-yl)urea] the IC50 was 0.301 to 0.5 µM.
CC(C)(C)c1cc(NC(=O)Nc2ccc(-c3nn(C4CCS(=O)(=O)C4)c4ncnc(N)c34)cc2F)on1 (stereo not drawn) [Ia-18, 1-(4-(4-amino-1-(1,1-dioxdotetrahydrothiophen-3-yl)-1H-pyrazolo[3,4-d]pyrimidin-3-yl)-2-fluorophenyl)-3-(3-(tert-butyl)isoxazol-5-yl)urea] was tested, and the IC50 was 0.151 to 0.3 µM.
Compound CC(C)(C)c1cc(NC(=O)Nc2ccc(-c3nn(C4CCCOC4)c4ncnc(N)c34)cc2F)on1 (stereo not drawn) [Ia-19, 1-(4-(4-amino-1-(tetrahydro-2H-pyran-3-yl)-1H-pyrazolo[3,4-d]pyrimidin-3-yl)-2-fluorophenyl)-3-(3-(tert-butyl)isoxazol-5-yl)urea] has an IC50 of 0.301 to 0.5 µM.
With CC(C)(C)c1cc(NC(=O)Nc2ccc(-c3nn(C4CC4)c4ncnc(N)c34)cc2)on1 [Ia-20, 1-(4-(4-amino-1-cyclopropyl-1H-pyrazolo[3,4-d]pyrimidin-3-yl)phenyl)-3-(3-(tert-butyl)isoxazol-5-yl)urea] the IC50 was under 0.15 µM.
For CC(C)(c1cc(NC(=O)Nc2ccc(-c3nn(C4CC4)c4ncnc(N)c34)cc2F)on1)C(F)(F)F [Ia-22, 1-(4-(4-amino-1-cyclopropyl-1H-pyrazolo[3,4-d]pyrimidin-3-yl)-2-fluorophenyl)-3-(3-(1,1,1-trifluoro-2-methylpropan-2-yl)isoxazol-5-yl)urea], the IC50 was 0.151 to 0.3 µM.

Same assay, conditions: comparative compounds of Structure (II)
For CC(C)n1nc(-c2ccc3c(c2F)CCN3C(=O)Cc2cccc(C(F)(F)F)c2)c2c(N)ncnc21 [II-1, l-(5-(4-amino-1-isopropyl-1H-pyrazolo[3,4-d]pyrimidin-3-yl)-4-fluoroindolin-1-yl)-2-(3-(trifluoromethyl)phenyl)ethan-1-one], the IC50 was 0.301 to 0.5 µM.
Compound CC(C)n1nc(-c2ccc3c(c2F)CCN3C(=O)Cc2ccc(F)c(C(F)(F)F)c2)c2c(N)ncnc21 [II-2, 1-(5-(4-amino-1-isopropyl-1H-pyrazol[3,4-d]pyrimidin-3-yl)-4-fluoroindolin-1-yl)-2-(4-fluoro-3-(trifluoromethyl)phenyl)ethan-1-one] has an IC50 of 0.151 to 0.3 µM.
With Nc1ncnc2c1c(-c1ccc3c(c1F)CCN3C(=O)Cc1cccc(C(F)(F)F)c1)nn2C1CC1 [II-4, 1-(5-(4-amino-1-cyclopropyl-1H-pyrazolo[3,4-d]pyrimidin-3-yl)-4-fluoroindolin-1-yl)-2-(3-(trifluoromethyl)phenyl)ethan-1-one] the IC50 was 0.151 to 0.3 µM.
Work on Cc1ccc(CC(=O)N2CCc3c2ccc(-c2nn(C(C)C)c4ncnc(N)c24)c3F)cc1C(F)(F)F [II-5, 1-(5-(4-amino01-isopropyl-1H-pyrazolo[3,4-d]pyrimidin-3-yl)-4-fluoroindolin-1-yl)-2-(4-methyl-3-(trifluoromethyl)phenyl)ethan-1-one] yielded an IC50 of 0.301 to 0.5 µM.
Compound Cc1c(CC(=O)N2CCc3c2ccc(-c2nn(C(C)C)c4ncnc(N)c24)c3F)cccc1C(F)(F)F [II-6, 1-(5-(4-amino-1-isopropyl-1H-pyrazolo[3,4-d]pyrimidin-3-yl)-4-fluoroindolin-l-yl)-2-(2-methyl-3-(trifluoromethyl)phenyl)ethan-1-one] has an IC50 of over 1.5 µM.
Work on CC(C)n1nc(-c2ccc3c(c2F)CCN3C(=O)Cc2cccc(OC(F)(F)F)c2)c2c(N)ncnc21 [II-7, 1-(5-(4-amino-1-isopropyl-1H-pyrazolo[3,4-d]pyrimidin-3-yl)-4-fluoroindolin-1-yl)-2-(3-(trifluoromethoxy)phenyl)ethan-1-one] yielded an IC50 of 0.151 to 0.3 µM.
CC(C)n1nc(-c2ccc3c(c2Cl)CCN3C(=O)Cc2ccc(F)c(C(F)(F)F)c2)c2c(N)ncnc21 [II-8, 1-(5-(4-amino-1-isopropyl-1H-pyrazolo[3,4-d]pyrimidin-3-yl)-4-chloroindolin-1-yl)-2-(4-fluoro-3-(trifluoromethyl)phenyl)ethan-1-one] was tested, and the IC50 was 0.501 to 1.5 µM.
Nc1ncnc2c1c(-c1ccc3c(c1F)CCN3C(=O)Cc1ccc(F)c(C(F)(F)F)c1)nn2C1COC1 [II-9, 1-(5-(4-amino-1-(oxetan-3-yl)-1H-pyrazolo[3,4-d]pyrimidin-3-yl)-4-fluoroindolin-1-yl)-2-(4-fluoro-3-(trifluoromethyl)phenyl)ethan-1-one] was tested, and the IC50 was 0.501 to 1.5 µM.
Nc1ncnc2c1c(-c1ccc3c(c1Cl)CCN3C(=O)Cc1ccc(F)c(C(F)(F)F)c1)nn2C1COC1 [II-10, 1-(5-(4-amino-1-(oxetan-3-yl)-1H-pyrazolo[3,4-d]pyrimidin-3-yl)-4-chloroindolin-1-yl)-2-(4-fluoro-3-(trifluoromethyl)phenyl)ethan-1-one] showed an IC50 of 0.151 to 0.3 µM.
